# “And” between values parts separate entries of the source, which are not always exact repeats. Identical values can stand only once. Like-named read-outs stand apart in the source and are kept apart here.
# How the values were obtained:
# [1] = test system: SKBR3, AU565, RD, SKES1, A673 cells; assay: Cell Titer-Glo Luminescent Cell Viability assay; details: read-out: IC50, cell viability; five cell lines (SKBR3, AU565, RD, SKES1, A673), after 24 hours
# KLHDC2^SBD [2] = target: T1, KLHDC2^SBD (Homo sapiens, UniProt Q9Y2U9); assay: Thermal shift assay (Sypro Orange) probing stabilization of KLHDC2^SBD; assay type: binding; design: KLHDC2^SBD (15-361) and its Avi-tagged counterpart were expressed in E. coli Rosetta2 cells; 6XHis-MBP (N, cleaved yes); made in house; host or cells: E. coli Rosetta2
# T1 sequence (Q9Y2U9 15-361): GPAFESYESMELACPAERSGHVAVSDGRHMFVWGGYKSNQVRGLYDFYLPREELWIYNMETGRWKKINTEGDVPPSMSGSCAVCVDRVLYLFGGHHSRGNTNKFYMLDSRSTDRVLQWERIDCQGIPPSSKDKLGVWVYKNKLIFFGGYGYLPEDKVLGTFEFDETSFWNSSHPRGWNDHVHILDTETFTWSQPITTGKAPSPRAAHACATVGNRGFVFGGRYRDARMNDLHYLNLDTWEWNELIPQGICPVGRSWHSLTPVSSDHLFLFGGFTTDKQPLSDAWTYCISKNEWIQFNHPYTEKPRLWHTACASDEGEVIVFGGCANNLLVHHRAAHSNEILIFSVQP
# Experimental: In an attempt to identify non-peptide ligands that target KLHDC2’s substrate binding domain (SBD), we developed a thermal shift assay probing for stabilization of KLHDC2^SBD upon ligand addition. […] We utilized the thermal shift assay to screen ~ 9,000 molecules from a diverse collection of lead-like molecules (Figs. 1b, S1a, Supplementary Table 1).
# Experimental compounds (200 nl each) were dispensed into a 384-well PCR plate using the Labcyte ECHO 655 T. The assay solution, comprising 0.5 μM KLHDC2, 25 mM HEPES, 200 mM NaCl, and 5% Sypro Orange at pH 7.5, was added to achieve a final volume of 20 μl. Negative control wells contained only DMSO, while positive control wells contained a di-Gly substrate peptide derived from SELK. Fluorescence measurements of Sypro Orange in each sample were taken using a Quantstudio 5 or Quantstudio 6, with temperatures ranging from 23 to 75 °C at a rate of 0.05 °C/s. Data analysis involved calculating thermal stability using the Boltzmann and first derivative minima equations in Thermo Scientific Protein Thermal Shift software v1.4. The resulting data were uploaded to CDD Vault for further analysis.
# The 8892-compound lead-like one library was screened for its ability to stabilize KLHDC2 using a sypro orange-based thermal stability single-point assay.
# Supplementary Ta b l e 1. Small molecule screening data
# Category Parameter Description
# Assay Ty p e o f assay Thermal Stability Screen
# Primary measurement RFU of Sypro Orange
# Key reagents Sypro Orange
# Assay protocol Experimental compounds (200nl each) were dispensed into […]
# a 384-well PCR plate using the Labcyte ECHO 655T. The […]
# assay solution, comprising 0.5µM KLHDC2, 25mM HEPES,
# 200mM NaCl, and 5% Sypro Orange at pH 7.5, was added […]
# to achieve a final volume of 20μl. Negative control wells […]
# contained only DMSO, while positive control wells […]
# contained peptide sub2. Fluorescence measurements of
# Sypro Orange in each sample were taken using a
# Quantstudio 5 or Quantstudio 6, with temperatures ranging […]
# from 23 to 75°C at a rate of 0.05°C/second. Data analysis […]
# involved calculating thermal stability using the Boltzmann […]
# and first derivative minima equations in Thermo Scientific
# Protein Thermal Shift software v1.4. The resulting data […]
# were uploaded to CDD Vault for further analysis.
# Library Library size 10041
# Library composition The library was curated from compounds cherry picked […]
# from St. Jude’s collection, representative of 80% of the […]
# entire collection based on scaffold diversity (2D Molecular […]
# fingerprinting based clustering) and structural properties: […]
# lipophilicity (cLogP<3), size (MW 200-300 Da), and no […]
# structural alerts (PAINS).
# Source The compound collection was curated from multiple […]
# vendors and stored on-site.
# Screen Format The assay was completed in 26 384 well plates
# Concentration(s) tested Compounds were tested at 100µM, and then a 16-point […]
# serial dilution was performed on select compounds.
# Plate controls DMSO as negative control and peptide sub2 as positive […]
# Reagent/ compound dispensing system Multidrop Combi and Labcyte ECHO 655T […]
# Detection instrument and software Quant Studio 5 and Quant Studio 6 and Thermo Scientific […]
# Protein Thermal Shift software v1.4
# Correction factors No correction factors were applied.
# KLHDC2^SBD [3] = target: T1, KLHDC2^SBD; assay: TR-FRET assay, competition with di-Gly degron peptide binding to KLHDC2^SBD; design: KLHDC2^SBD (15-361) and its Avi-tagged counterpart were expressed in E. coli Rosetta2 cells; 6XHis-MBP (N, cleaved yes); made in house; host or cells: E. coli Rosetta2
# Experimental: TR-FRET assays were carried out in black 384-well microtiter plates at a final volume of 20 μL per well. An assay cocktail was prepared as a mixture of 50 nM Biotin-KLHDC2 SBD, 20 nM AlexaFluor488-RIC8B peptide, 2.5 nM Tb-Streptavidin (ThermoFisher) in assay buffer (25 mM HEPES, 100 mM NaCl, 0.1% Triton X-100, 0.5 mM DTT, pH 7.5). The assay cocktail was incubated for thirty-minutes at room temperature and 20 μl distributed to assay plates. Molecules were distributed to the plates at the indicated concentration and the assay mixture was incubated for 1 h at room temperature prior to measuring the TR-FRET signal with a PHERAstar FS plate reader (BMG Labtech) equipped with modules for excitation at 337 nm and emissions at 490 and 520 nm. The integration start was set to 100 µs and the integration time to 200 µs. The number of flashes was fixed at 100. The ratio of 520/490 was used as TR-FRET signal in calculations. Assay endpoints were normalized to 100% (buffer only) and used for curve fitting in Prism.
# KLHDC2^SBD [4] = target: T1, KLHDC2^SBD; assay: Surface plasmon resonance binding to KLHDC2; design: KLHDC2^SBD (15-361) and its Avi-tagged counterpart were expressed in E. coli Rosetta2 cells; 6XHis-MBP (N, cleaved yes); made in house; host or cells: E. coli Rosetta2
# Experimental: Surface plasmon resonance (SPR) was utilized to determine kinetic parameters and binding affinity of KLHDC2 substrates using a PioneerFE (Sartorius). Experiments were carried out in 20 mM Tris, 200 mM NaCl, 1 mM TCEP, 0.01% Brij35, and 1% DMSO at pH 7.4 as a running buffer with a 100 µL/min flow rate at 20 °C.
# The 10xHis-KLHDC2 was immobilized onto a Ni-NTA-coated biosensor chip (HisCap). The chip surface was conditioned using 10 mM HCl, 50 mM NaOH, and 0.1% SDS (50 µL at 100 µL/min) twice, followed by a 100 mM Tris buffer wash (100 µL at 100 µL/min). The surface was then activated using an injection of 0.5 M EDTA (125 µL at 25 µL/min) followed by an injection of 5 mM NiCl2 (125 µL at 25 µL/min). […] Channel 2 was treated identically to channel 3 except for protein loading to be used as a reference channel. […] 100% of the loop was injected with a 300 s dissociation time. All samples were run in triplicate. Data was analyzed using Qdat software and fit to a simple 1-site model.
# The SPR experiments were performed to determine the binding affinities (KD) of KLHDC2-SJ46411 and KLHDC2-SJ46418 complexes. All the experiments were performed using a Biacore 1S+ instrument. […] The running buffer consisted of 20 mM Tris pH 7.5, 200 mM NaCl, 1 mM TCEP, 0.01% Brij35, and 4% DMSO. […] In brief, before the immobilization, the sensor chip surface was conditioned by injecting a mixture of (3:1 v/v) 8 M guanidine hydrochloride and 1 M NaOH at a flow rate of 5 μL/min for 2 min for two times. Then, running buffer was injected at a 30 μl/min flow rate for 1 min 3 times. Next, the Biotin CAPture reagent was injected at a flow rate of 2 μl/min for 5 min. Then, biotinylated KLHDC2 was only injected onto the active channel (channel 2).
# Sample preparation was carried out precisely the same as SJ46411. All experiments were performed using a multi-cycle analysis method with a 30 μl/min flow rate, 120 S association, and 240 s dissociation time. All data were reference subtracted and corrected for DMSO mismatch. The sensorgrams were analyzed using Biacore insight evaluation software, and KD was determined using the 1:1 steady-state affinity fitting. Finally, all the analyzed data was replotted using GraphPad Prizm 10 software.
# [5] = target: neddylated CRL2^KLHDC2 / BRD3^BD2 (Homo sapiens, UniProt Q15059+Q9Y2U9, Q9Y2U9:G405K/Q9Y2U9:S406K); assay: biochemical
# neddylated CRL2^KLHDC2 = neddylated CRL2^KLHDC2 (Homo sapiens, UniProt Q9Y2U9, G405K/S406K); assay: biochemical
# [6] = Solubility as observed in the ITC sample cell; details: at 40 μM in the ITC sample cell
# KLHDC2^SBD [7] = target: T1, KLHDC2^SBD; assay: ITC, binary binding of small molecule to KLHDC2^SBD
# KLHDC2^SBD / BRD3^BD2 = KLHDC2^SBD / BRD3^BD2 (Homo sapiens, UniProt Q15059+Q9Y2U9); assay: ITC, ternary complex KLHDC2^SBD with PROTAC-BRD3^BD2
# [8] = test system: BD2 domain from BRD2, BRD3, or BRD4 / neddylated CRL2^KLHDC2; assay: Pulse-chase PROTAC-dependent ubiquitylation of BRD BD2 domains by neddylated CRL2^KLHDC2; details: neddylated CRL2^KLHDC2 not subject to autoinhibition; Fig 3e
# [9] = inhibition of KLHDC2^SBD binding to a di-Gly degron peptide, read-out: TR-FRET IC50
# [10] = cell: ligand, syringe: KLHDC2^SBD
# [11] = cell: PROTAC-BRD3^BD2, syringe: KLHDC2^SBD
# Sequence of KLHDC2^SBD / BRD3^BD2 (Q15059 306-416, one chain of several): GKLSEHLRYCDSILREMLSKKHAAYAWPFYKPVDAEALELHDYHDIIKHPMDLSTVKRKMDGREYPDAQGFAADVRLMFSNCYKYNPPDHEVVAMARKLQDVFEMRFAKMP
smiles,measurement,setting,value
"Cc1sc2c(c1C)C(c1ccc(Cl)cc1)=N[C@@H](CC(=O)OC(C)(C)C)c1nnc(C)n1-2 [JQ1, reference compound]",IC50,[1],~0.3 µM
O=C(O)CNC(=O)Cc1csc(-c2cccc(Cl)c2)n1 [SJ10267],ΔTm at 50 µM,KLHDC2^SBD [2]; read-out: ΔTm at 50 µM,2.3 ± 0.07 °C
same,IC50,KLHDC2^SBD [3]; [9],46.7 ± 13.5 µM
same,Kd,KLHDC2^SBD [4]; read-out: SPR Kd,19 ± 0.06 µM
COc1ccc(-c2nc(CC(=O)NCC(=O)O)cs2)c(Cl)c1 [SJ10272],ΔTm at 50 µM,KLHDC2^SBD [2]; read-out: ΔTm at 50 µM,3.3 ± 0.2 °C
same,IC50,KLHDC2^SBD [3]; [9],30.2 ± 3.4 µM
same,Kd,KLHDC2^SBD [4]; read-out: SPR Kd,14.52 ± 0.01 µM
O=C(O)CNC(=O)Cc1csc(-c2ccc(O)cc2Cl)n1 [SJ10280],ΔTm at 50 µM,KLHDC2^SBD [2]; read-out: ΔTm at 50 µM,2.5 ± 0.2 °C
same,IC50,KLHDC2^SBD [3]; [9],40.6 ± 7.6 µM
same,Kd,KLHDC2^SBD [4]; read-out: SPR Kd,25.47 ± 0.05 µM
COCn1cc(-c2nc(CC(=O)NCC(=O)O)cs2)ccc1=O [SJ15396],ΔTm at 50 µM,KLHDC2^SBD [2]; 50 µM compound,0.9 ± 0.2 °C
same,IC50,KLHDC2^SBD [3],55.3 ± 25.2 µM
same,Kd,KLHDC2^SBD [4]; SPR Kd,> 2000 µM
COCOc1ccc(-c2nc(CC(=O)NCC(=O)O)cs2)cc1F [SJ45737],ΔTm at 50 µM,KLHDC2^SBD [2]; read-out: ΔTm at 50 µM,2.8 ± 0.3 °C
same,IC50,KLHDC2^SBD [3]; [9],72.8 ± 8.6 µM
same,Kd,KLHDC2^SBD [4]; read-out: SPR Kd,26.6 ± 0.1 µM
Cc1sc2c(c1C)C(c1ccc(Cl)cc1)=N[C@@H](CC(=O)N1CCN(CCOc3ccc4ccc(-c5nc(CC(=O)NCC(=O)O)cs5)cc4c3)CC1)c1nnc(C)n1-2 [SJ46423],IC50,[5],2.2 µM
same,IC50,neddylated CRL2^KLHDC2,15.3 µM
same,solubility,[6],solubility issues
same,Kd,"KLHDC2^SBD [7]; ITC Kd, cell: ligand, syringe: KLHDC2^SBD",0.74 µM and 0.737 µM
same,Kd,"KLHDC2^SBD [7]; Kd, Rep1/Rep2, ITC source data Fig4a, syringe KLHDC2, cell PROTAC alone",0.69 µM and 0.789 µM
same,ITC -TΔS,KLHDC2^SBD [7]; [10],-5.26 +/- 0.22 kcal/mol-1
same,ITC stoichiometry of binding N,KLHDC2^SBD [7]; [10],0.4 and ~ 0.5
same,ITC ΔG,KLHDC2^SBD [7]; [10],-8.61 +/- 0.04 kcal/mol-1
same,ITC ΔH,KLHDC2^SBD [7]; [10],-3.35 +/- 0.11 kcal/mol-1
same,cooperativity α,"KLHDC2^SBD / BRD3^BD2; BRD3^BD2, KLHDC2^SBD",2.9
same,ITC -TΔS (ternary),KLHDC2^SBD / BRD3^BD2; [11],-5.26 +/- 0.18 kcal/mol-1
same,ITC N (ternary),KLHDC2^SBD / BRD3^BD2; [11],0.4 and ~ 0.5
same,ITC ΔG (ternary),KLHDC2^SBD / BRD3^BD2; [11],-9.33 +/- 0.05 kcal/mol-1
same,"polyubiquitylation of the BD2 domain from BRD2, BRD3, or BRD4",[8],able to promote polyubiquitylation

# From article PMC11470957, “Principles of paralog-specific targeted protein degradation engaging the C-degron E3 KLHDC2” (Nature Communications, 2024)
